# Test results published in patent US10405547B2, “Substituted cyclic amides as herbicides” (FMC Corporation, priority 2015, dated 2019).
# Columns and labels:
# Assay type in all cases: in vivo
# [1] = system: ragweed (common ragweed, Ambrosia elatior); experiment: Test A postemergence, ragweed; conditions: visual injury, 0 to 100 scale (0 no effect, 100 complete control), approximately 10 days
# Method in brief: (§1)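 Injury scores (0 no effect, 100 complete control) were assigned by visually comparing treated with untreated plants after about 10 days of greenhouse growth. Seeds for soil treatment were sown into a loam and sand blend, while plants for foliar treatment grew in pots of that same blend.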
# corn (Zea mays) = experiment: Test A postemergence, corn; conditions: visual injury, 0 to 100 scale (0 no effect, 100 complete control), approximately 10 days
# Method in brief: as §1
# [2] = system: ryegrass, Italian (Lolium multiflorum); experiment: Test A postemergence, Italian ryegrass; conditions: visual injury, 0 to 100 scale (0 no effect, 100 complete control), approximately 10 days
# Method in brief: as §1
# [3] = system: wheat (Triticum aestivum); experiment: Test A postemergence, wheat; conditions: visual injury, 0 to 100 scale (0 no effect, 100 complete control), approximately 10 days
# Method in brief: as §1
# [4] = system: barnyardgrass (Echinochloa crus-galli); experiment: Test A preemergence, barnyardgrass; conditions: 0 to 100 scale (0 no effect, 100 complete control)
# Method in brief: as §1
# kochia (Kochia scoparia) [5] = experiment: Test A preemergence, kochia; conditions: 0 to 100 scale (0 no effect, 100 complete control)
# Method in brief: as §1
# rice (Oryza sativa) = experiment: Test B flooded paddy test, rice; conditions: 500 g ai/ha, applied to paddy water, visual rating after 13 to 15 days, scale 0 (no effect) to 100 (complete control)
# Method in brief: (§2)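 Test compounds are applied straight into paddy water held 3 cm above the soil surface, with that flood maintained for the whole test. After 13 to 15 days in the greenhouse, each species is scored visually relative to controls.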
# [6] = system: pigweed (Amaranthus retroflexus); experiment: Test A preemergence, pigweed; conditions: 0 to 100 scale (0 no effect, 100 complete control)
# Method in brief: as §1
# [7] = system: blackgrass (Alopecurus myosuroides); experiment: Test A postemergence, blackgrass; conditions: visual injury, 0 to 100 scale (0 no effect, 100 complete control), approximately 10 days
# Method in brief: as §1
# [8] = system: foxtail, giant (Setaria faberii); experiment: Test A postemergence, giant foxtail; conditions: visual injury, 0 to 100 scale (0 no effect, 100 complete control), approximately 10 days
# Method in brief: as §1
# [9] = system: galium (catchweed bedstraw, Galium aparine); experiment: Test A postemergence, galium; conditions: visual injury, 0 to 100 scale (0 no effect, 100 complete control), approximately 10 days
# Method in brief: as §1
# kochia (Kochia scoparia) [10] = experiment: Test A postemergence, kochia; conditions: visual injury, 0 to 100 scale (0 no effect, 100 complete control), approximately 10 days
# Method in brief: as §1
# [11] = system: barnyardgrass (Echinochloa crus-galli); experiment: Test A postemergence, barnyardgrass; conditions: visual injury, 0 to 100 scale (0 no effect, 100 complete control), approximately 10 days
# Method in brief: as §1
# [12] = system: foxtail, giant (Setaria faberii); experiment: Test A preemergence, giant foxtail; conditions: 0 to 100 scale (0 no effect, 100 complete control)
# Method in brief: as §1
# [13] = system: ragweed (common ragweed, Ambrosia elatior); experiment: Test A preemergence, ragweed; conditions: 0 to 100 scale (0 no effect, 100 complete control)
# Method in brief: as §1
# [14] = system: ryegrass, Italian (Lolium multiflorum); experiment: Test A preemergence, Italian ryegrass; conditions: 0 to 100 scale (0 no effect, 100 complete control)
# Method in brief: as §1
# [15] = system: ducksalad (Heteranthera limosa); experiment: Test B flooded paddy test, ducksalad; conditions: 500 g ai/ha, applied to paddy water, visual rating after 13 to 15 days, scale 0 (no effect) to 100 (complete control)
# Method in brief: as §2
# [16] = system: pigweed (Amaranthus retroflexus); experiment: Test A postemergence, pigweed; conditions: visual injury, 0 to 100 scale (0 no effect, 100 complete control), approximately 10 days
# Method in brief: as §1
# [17] = system: barnyardgrass (Echinochloa crus-galli); experiment: Test B flooded paddy test, barnyardgrass; conditions: 500 g ai/ha, applied to paddy water, visual rating after 13 to 15 days, scale 0 (no effect) to 100 (complete control)
# Method in brief: as §2
# [18] = system: sedge, umbrella (small-flower umbrella sedge, Cyperus difformis); experiment: Test B flooded paddy test, umbrella sedge; conditions: 500 g ai/ha, applied to paddy water, visual rating after 13 to 15 days, scale 0 (no effect) to 100 (complete control)
# Method in brief: as §2
SMILES,"Plant response rating, Ragweed ([1]; 125 g ai/ha)","Plant response rating, Ragweed ([1]; 500 g ai/ha)","Plant response rating, Corn (corn (Zea mays); 125 g ai/ha)","Plant response rating, Corn (corn (Zea mays); 500 g ai/ha)","Plant response rating, Ryegrass, Italian ([2]; 125 g ai/ha)","Plant response rating, Ryegrass, Italian ([2]; 500 g ai/ha)","Plant response rating, Wheat ([3]; 125 g ai/ha)","Plant response rating, Wheat ([3]; 500 g ai/ha)","Plant response rating, Barnyardgrass ([4]; 125 g ai/ha)","Plant response rating, Barnyardgrass ([4]; 500 g ai/ha)","Plant response rating, Kochia (kochia (Kochia scoparia) [5]; 125 g ai/ha)","Plant response rating, Kochia (kochia (Kochia scoparia) [5]; 500 g ai/ha)","Plant response rating, Rice (Flood) (rice (Oryza sativa))","Plant response rating, Pigweed ([6]; 125 g ai/ha)","Plant response rating, Pigweed ([6]; 500 g ai/ha)","Plant response rating, Blackgrass ([7]; 125 g ai/ha)","Plant response rating, Blackgrass ([7]; 500 g ai/ha)","Plant response rating, Foxtail, Giant ([8]; 125 g ai/ha)","Plant response rating, Foxtail, Giant ([8]; 500 g ai/ha)","Plant response rating, Galium ([9]; 125 g ai/ha)",also measured
O=C1NCC(c2cccc(Cn3ccc(C(F)(F)F)n3)c2)C1C(=O)Nc1ccc(F)c(F)c1F (stereo not drawn) [Compound 22],0,0,0,0,0,0,0,0,0,30,0,0,0,0,0,0,0,20,60,0,"Plant response rating, Galium ([9]; 500 g ai/ha): 0; Plant response rating, Kochia (kochia (Kochia scoparia) [10]; 125 g ai/ha): 0; Plant response rating, Kochia (kochia (Kochia scoparia) [10]; 500 g ai/ha): 0; Plant response rating, Barnyardgrass ([11]; 125 g ai/ha): 40; Plant response rating, Barnyardgrass ([11]; 500 g ai/ha): 60; Plant response rating, Foxtail, Giant ([12]; 125 g ai/ha): 40; Plant response rating, Foxtail, Giant ([12]; 500 g ai/ha): 80; Plant response rating, Ragweed ([13]; 125 g ai/ha): 0; Plant response rating, Ragweed ([13]; 500 g ai/ha): 0; Plant response rating, Ryegrass, Italian ([14]; 125 g ai/ha): 0; Plant response rating, Ryegrass, Italian ([14]; 500 g ai/ha): 0; Plant response rating, Ducksalad (Flood) [15]: 0; Plant response rating, Pigweed ([16]; 125 g ai/ha): 0; Plant response rating, Pigweed ([16]; 500 g ai/ha): 0; Plant response rating, Barnyardgrass (Flood) [17]: 30; Plant response rating, Sedge, Umbrella (Flood) [18]: 0"
O=C1NCC(c2cccc(Cn3ccc(C(F)(F)F)n3)c2)C1C(=O)Nc1ccccc1F (stereo not drawn) [Compound 23],0,0,0,0,0,0,0,0,0,20,0,20,0,0,0,0,0,0,20,0,"Plant response rating, Galium ([9]; 500 g ai/ha): 0; Plant response rating, Kochia (kochia (Kochia scoparia) [10]; 125 g ai/ha): 0; Plant response rating, Kochia (kochia (Kochia scoparia) [10]; 500 g ai/ha): 0; Plant response rating, Barnyardgrass ([11]; 125 g ai/ha): 0; Plant response rating, Barnyardgrass ([11]; 500 g ai/ha): 30; Plant response rating, Foxtail, Giant ([12]; 125 g ai/ha): 20; Plant response rating, Foxtail, Giant ([12]; 500 g ai/ha): 50; Plant response rating, Ragweed ([13]; 125 g ai/ha): 0; Plant response rating, Ragweed ([13]; 500 g ai/ha): 0; Plant response rating, Ryegrass, Italian ([14]; 125 g ai/ha): 0; Plant response rating, Ryegrass, Italian ([14]; 500 g ai/ha): 0; Plant response rating, Ducksalad (Flood) [15]: 0; Plant response rating, Pigweed ([16]; 125 g ai/ha): 0; Plant response rating, Pigweed ([16]; 500 g ai/ha): 0; Plant response rating, Barnyardgrass (Flood) [17]: 0; Plant response rating, Sedge, Umbrella (Flood) [18]: 0"
O=C1NCC(c2cccc(Cn3ccc(C(F)(F)F)n3)c2)C1C(=O)Nc1ccc(F)cc1F (stereo not drawn) [Compound 24],0,0,0,0,0,0,0,0,0,0,0,0,0,0,0,0,0,0,0,0,"Plant response rating, Galium ([9]; 500 g ai/ha): 0; Plant response rating, Kochia (kochia (Kochia scoparia) [10]; 125 g ai/ha): 0; Plant response rating, Kochia (kochia (Kochia scoparia) [10]; 500 g ai/ha): 0; Plant response rating, Barnyardgrass ([11]; 125 g ai/ha): 0; Plant response rating, Barnyardgrass ([11]; 500 g ai/ha): 0; Plant response rating, Foxtail, Giant ([12]; 125 g ai/ha): 0; Plant response rating, Foxtail, Giant ([12]; 500 g ai/ha): 0; Plant response rating, Ragweed ([13]; 125 g ai/ha): 0; Plant response rating, Ragweed ([13]; 500 g ai/ha): 0; Plant response rating, Ryegrass, Italian ([14]; 125 g ai/ha): 0; Plant response rating, Ryegrass, Italian ([14]; 500 g ai/ha): 0; Plant response rating, Ducksalad (Flood) [15]: 0; Plant response rating, Pigweed ([16]; 125 g ai/ha): 0; Plant response rating, Pigweed ([16]; 500 g ai/ha): 0; Plant response rating, Barnyardgrass (Flood) [17]: 0; Plant response rating, Sedge, Umbrella (Flood) [18]: 0"
